Data: US11147772B2, “Timed, pulsatile release systems” (Adare Pharmaceuticals, Inc., priority 2005, dated 2021)
Structures can show the parent of a compound that is named as a salt.

Tests used:
[1] = pH of representative drugs suspended in water; format: physicochemical; details: for pH when suspended in purified water (range over the concentrations of Table 1): range over tested solid contents; for Acidity/Alkalinity: drug suspended in water
[2] = Drug release (dissolution) testing of TPR beads in two-stage medium, lag-time; format: physicochemical; details: expected from higher alkalinity, given coating conditions
Protocol: Dissolution testing of IR beads and enteric coated beads (for acid resistance testing) is conducted with a USP Apparatus 1 (baskets at 100 rpm) or Apparatus 2 (paddles at 50 rpm) in 900 mL of 0.1N HCl at 37° C. while the dissolution testing of TPR beads is conducted in a USP apparatus using a two-stage dissolution medium (first 2 hours in 700 mL of 0.1N HCl at 37° C. followed by dissolution testing at pH=6.8 obtained by the addition of 200 mL of pH modifier). Drug release with time is determined by HPLC on samples pulled at selected intervals.
Drug Release Testing: The drug release profiles were generated by dissolution testing per US Pharmacopoeia method (Apparatus 1 with baskets at 100 rpm or Apparatus 2 with paddles at 50 rpm) using 700 mL of p H 1.2 buffer for 2 hours followed by testing in 900 mL of pH 6.8 for the remaining time-points). The IR and enteric-coated beads were tested in 900 mL of 0.1N HCl for 1 and 1.5 hrs, respectively. The samples pulled at different time-points were quantified by HPLC.

[3] = drug concentration (solid content) 0.1 mg/mL in water
[4] = drug concentration (solid content) 1.0 mg/mL in water
[5] = drug concentration (solid content) 10 mg/mL in water
[6] = drug concentration (solid content) 0.2 mg/mL in water
[7] = drug concentration (solid content) 2.0 mg/mL in water
[8] = drug concentration (solid content) 20 mg/mL in water

pH of Solution/Suspension [1, 3] | pH of Solution/Suspension [1, 4] | pH of Solution/Suspension [1, 5] | pH when suspended in purified water (range over the concentrations of Table 1) [1] | lag time relative to nizatidine [2] | pH of Solution/Suspension [1, 6] | pH of Solution/Suspension [1, 7] | pH of Solution/Suspension [1, 8] | SMILES | Acidity/Alkalinity [1]
pH = 7.9 | pH = 10.9 | pH = 11.0 | 7.9-11.0 | shorter lag time than nizatidine |  |  |  | CC(C)NCC(O)COc1ccc(CC(N)=O)cc1 (stereo not shown) [Atenolol] | 
pH = 6.1 | pH = 6.5 | pH = 6.7 |  |  |  |  |  | CN(C)CCC=C1c2ccccc2C=Cc2ccccc21 [Cyclobenzaprine Hydrochloride] | Acidic (exhibiting a pH of 7.0, or less, when suspended in water at a solid content of 2 mg/mL is designated as an acidic drug)
 |  |  | 6.5-8.7 |  | pH = 6.5 | pH = 7.4 | pH = 8.7 | CNC(=C[N+](=O)[O-])NCCSCc1csc(CN(C)C)n1 [Nizatidine] | Alkaline (an API exhibiting a pH of 7.0, or greater, is designated as an alkaline drug)
 |  |  | 5.7-6.5 |  | pH = 5.7 | pH = 6.0 | pH = 6.5 | CC(C)NCC(O)COc1cccc2ccccc12 (stereo not shown) [Propranolol Hydrochloride] | Acidic (exhibiting a pH of 7.0, or less, when suspended in water at a solid content of 2 mg/mL is designated as an acidic drug)
